Data as given in ChEMBL document CHEMBL3885881, “DrugMatrix”.

Organism: Rattus norvegicus
Test: DrugMatrix - Regimen: Daily Repeat
Assay type: toxicity, organism-based, Sprague-Dawley
Design: regimen Daily Repeat, gender Male, age 6-8 weeks
Conditions: in vivo, po, 1500 mg/kg, route oral GAVAGE, dose level High, vehicle .5 % CMC; for ABSOLUTE BASOPHIL / ABSOLUTE EOSINOPHIL / ABSOLUTE LYMPHOCYTE / ABSOLUTE MONOCYTE / ABSOLUTE SEGMENTED NEUTROPHIL / BASOPHIL / EOSINOPHIL / ERYTHROCYTE COUNT / HEMATOCRIT / HEMOGLOBIN / LEUKOCYTE COUNT / LYMPHOCYTE / MEAN CORPUSCULAR HEMOGLOBIN / MEAN CORPUSCULAR HEMOGLOBIN CONCENTRATION / MEAN CORPUSCULAR VOLUME / MONOCYTE / NEUTROPHIL / NUCLEATED RED BLOOD CELLS / PLATELET COUNT: tissue Blood; for ALANINE AMINOTRANSFERASE / ALBUMIN / ALKALINE PHOSPHATASE / ASPARTATE AMINOTRANSFERASE / BLOOD UREA NITROGEN / CARBON DIOXIDE / CHLORIDE / CHOLESTEROL / CREATINE PHOSPHOKINASE / CREATININE / GLUCOSE / LACTATE DEHYDROGENASE / LIPASE / PHOSPHORUS / POTASSIUM / SODIUM / TOTAL BILIRUBIN / TOTAL PROTEIN / URIC ACID: tissue Plasma

O=C(N[C@H](CO)[C@H](O)c1ccc([N+](=O)[O-])cc1)C(Cl)Cl [CHLORAMPHENICOL]
ABSOLUTE BASOPHIL (72 h, time 3 day): 0 CELLS/uL
ABSOLUTE EOSINOPHIL (72 h, time 3 day): 0 CELLS/uL
ABSOLUTE LYMPHOCYTE (72 h, time 3 day): 14694 CELLS/uL
ABSOLUTE MONOCYTE (72 h, time 3 day): 312.67 CELLS/uL
ABSOLUTE SEGMENTED NEUTROPHIL (72 h, time 3 day): 793.33 CELLS/uL
BASOPHIL (72 h, time 3 day): 0%
EOSINOPHIL (72 h, time 3 day): 0%
ERYTHROCYTE COUNT (72 h, time 3 day): 5.41 x10E6/uL
HEMATOCRIT (72 h, time 3 day): 34.37%
HEMOGLOBIN (72 h, time 3 day): 13.67 G/DL
LEUKOCYTE COUNT (72 h, time 3 day): 15.8 x10E3/uL
LYMPHOCYTE (72 h, time 3 day): 93%
MEAN CORPUSCULAR HEMOGLOBIN (72 h, time 3 day): 25.33 pg
MEAN CORPUSCULAR HEMOGLOBIN CONCENTRATION (72 h, time 3 day): 39.83 G/DL
MEAN CORPUSCULAR VOLUME (72 h, time 3 day): 63.63 fL
MONOCYTE (72 h, time 3 day): 2%
NEUTROPHIL (72 h, time 3 day): 5%
NUCLEATED RED BLOOD CELLS (72 h, time 3 day): 0 /100WBC
PLATELET COUNT (72 h, time 3 day): 1264 x10E3/uL
ALANINE AMINOTRANSFERASE (72 h, time 3 day): 78 u/L
ALBUMIN (72 h, time 3 day): 4.33 G/DL
ALKALINE PHOSPHATASE (72 h, time 3 day): 347 u/L
ASPARTATE AMINOTRANSFERASE (72 h, time 3 day): 90.33 u/L
BLOOD UREA NITROGEN (72 h, time 3 day): 15.67 mg/dL
CARBON DIOXIDE (72 h, time 3 day): 37.67 mmol/L
CHLORIDE (72 h, time 3 day): 101.33 MEQ/L
CHOLESTEROL (72 h, time 3 day): 63 mg/dL
CREATINE PHOSPHOKINASE (72 h, time 3 day): 530 u/L
CREATININE (72 h, time 3 day): 0.15 mg/dL
GLUCOSE (72 h, time 3 day): 150 mg/dL
LACTATE DEHYDROGENASE (72 h, time 3 day): 92.67 u/L
LIPASE (72 h, time 3 day): 9.33 u/L
PHOSPHORUS (72 h, time 3 day): 10.53 mg/dL
POTASSIUM (72 h, time 3 day): 6.53 MEQ/L
SODIUM (72 h, time 3 day): 143.67 MEQ/L
TOTAL BILIRUBIN (72 h, time 3 day): 0.13 mg/dL
TOTAL PROTEIN (72 h, time 3 day): 5.6 G/DL
URIC ACID (72 h, time 3 day): 1.4 mg/dL
ABSOLUTE BASOPHIL (120 h, time 5 day): 0 CELLS/uL
ABSOLUTE EOSINOPHIL (120 h, time 5 day): 0 CELLS/uL
ABSOLUTE LYMPHOCYTE (120 h, time 5 day): 13927 CELLS/uL
ABSOLUTE MONOCYTE (120 h, time 5 day): 280 CELLS/uL
ABSOLUTE SEGMENTED NEUTROPHIL (120 h, time 5 day): 1126.33 CELLS/uL
BASOPHIL (120 h, time 5 day): 0%
EOSINOPHIL (120 h, time 5 day): 0%
ERYTHROCYTE COUNT (120 h, time 5 day): 5.7 x10E6/uL
HEMATOCRIT (120 h, time 5 day): 35.27%
HEMOGLOBIN (120 h, time 5 day): 14.27 G/DL
LEUKOCYTE COUNT (120 h, time 5 day): 15.33 x10E3/uL
LYMPHOCYTE (120 h, time 5 day): 90.67%
MEAN CORPUSCULAR HEMOGLOBIN (120 h, time 5 day): 25.07 pg
MEAN CORPUSCULAR HEMOGLOBIN CONCENTRATION (120 h, time 5 day): 40.5 G/DL
MEAN CORPUSCULAR VOLUME (120 h, time 5 day): 61.9 fL
MONOCYTE (120 h, time 5 day): 2%
NEUTROPHIL (120 h, time 5 day): 7.33%
NUCLEATED RED BLOOD CELLS (120 h, time 5 day): 0.33 /100WBC
PLATELET COUNT (120 h, time 5 day): 1090 x10E3/uL
ALANINE AMINOTRANSFERASE (120 h, time 5 day): 63 u/L
ALBUMIN (120 h, time 5 day): 4.13 G/DL
ALKALINE PHOSPHATASE (120 h, time 5 day): 266.33 u/L
ASPARTATE AMINOTRANSFERASE (120 h, time 5 day): 100.33 u/L
BLOOD UREA NITROGEN (120 h, time 5 day): 22.33 mg/dL
CARBON DIOXIDE (120 h, time 5 day): 35 mmol/L
CHLORIDE (120 h, time 5 day): 103 MEQ/L
CHOLESTEROL (120 h, time 5 day): 56 mg/dL
CREATINE PHOSPHOKINASE (120 h, time 5 day): 359.67 u/L
CREATININE (120 h, time 5 day): 0.2 mg/dL
GLUCOSE (120 h, time 5 day): 144 mg/dL
LACTATE DEHYDROGENASE (120 h, time 5 day): 180 u/L
LIPASE (120 h, time 5 day): 8.67 u/L
PHOSPHORUS (120 h, time 5 day): 9.33 mg/dL
POTASSIUM (120 h, time 5 day): 9.76 MEQ/L
SODIUM (120 h, time 5 day): 143.67 MEQ/L
TOTAL BILIRUBIN (120 h, time 5 day): 0.17 mg/dL
TOTAL PROTEIN (120 h, time 5 day): 5.23 G/DL
URIC ACID (120 h, time 5 day): 1.3 mg/dL
